Measurements: US20160280631A1, “ESTER COMPOUNDS INCLUDING TRIESTERS HAVING TERMINAL VICINAL ACYL GROUPS” (BIOSYNTHETIC TECHNOLOGIES, LLC., priority 2015, published 2016)

Assay: kinematic viscosity (ASTM Method D445-97)
Format: physicochemical
Settings: measured at 100° C.
Experimental: Except as otherwise described, pour point is measured by ASTM Method D97-96a, cloud point is measured by ASTM Method D2500, viscosity/kinematic viscosity is measured by ASTM Method D445-97, viscosity index is measured by ASTM Method D2270-93 (Reapproved 1998), specific gravity is measured by ASTM Method D4052, flash point is measured by ASTM Method D92, evaporative loss is measured by ASTM Method D5800, vapor pressure is measured by ASTM Method D5191, and acute aqueous toxicity is measured by Organization of Economic Cooperation and Development (OECD) 203.

| kinematic viscosity | Compound |
| --- | --- |
| less than 10 cSt | CCCCC(CC)COC(=O)CCCCCCCCC(COC(C)=O)OC(C)=O (centres unmarked) [Example 4] |
| less than 10 cSt | CCCCC(CC)COC(=O)CCCCCCCCC(COC(=O)C(C)C)OC(=O)C(C)C (centres unmarked) [Example 5] |
